According to patent publication US10485769B2, “Cholesteryl ester transfer protein (CETP) inhibition in the treatment of cancer” (KING ABDULLAH UNIVERSITY OF SCIENCE AND TECHNOLOGY, priority 2015, dated 2019):

Experiments:
MCF-7 cells [1] = assay: APOPercentage assay, apoptosis in MCF-7 cells; format: cell-based, human; details: 10 μM
Method: (§1) FIG. 5: Cholesterol depletion by PL and AP. BJ, BT20 and MCF-7 cells were treated with 10 μM PL or AP for 2 h and cholesterol levels were determined with the Amplex Red Cholesterol kit as per manufacturer's instructions. Cells treated with 5 mg/ml MBCD was used as a positive control and fluorescence was measured with a Tecan plate reader. MCF-7 cells were pre-incubated with 1 mM cholesterol for 1 h followed by treatment with 10 μM PL or AP for 2 h (A). Apoptosis was determined by flow cytometry with the APOPercentage kit or Cells treated with MBCD and 5 mM H2O2 served as positive controls (B). Values represent the means±SD of three independent experiments.
Next we asked if addition of cholesterol can rescue MCF-7 cells from undergoing apoptosis when treated with PL or AP.

MCF-7 CETP siRNA cells [2] = assay: Total cholesterol in CETP knock-out MCF-7 cells, Amplex Red; format: cell-based, human; details: 10 μM
Method: FIG. 8: Levels of total cholesterol in MCF-7 control (cntl) siRNA and CETP knock-out cells after treatment with 10 μM PL or AP were determined with the Amplex Red assay kit. Values represent the means±SD of three independent experiments.
We measured the amount of cholesterol in CETP knock-out MCF-7 untreated and/or treated with 10 μM AP and PL. […] (FIG. 8).

MCF-7 cells [3] = assay: Total cholesterol in cells, Amplex Red Cholesterol kit; format: cell-based, human; details: 10 μM, within 2 h, compared to untreated cells
Method: as §1
Next, we determined the effects of PL and AP on cholesterol levels in cells. Within 2 h of treatment with PL or AP, total cholesterol was reduced by 35% in MCF-7 cells as compared to untreated cells (FIG. 5). To test whether cholesterol depletion occurred in other cell types or if this was limited to ER positive BC cells, BJ and BT20 cells were also treated with PL or AP (Fig.).

MCF-7 tumors = assay: Efficacy in MCF-7 xenograft nude mouse model of BC; format: in vivo, nude mice; details: 21 days
Method: (§2) FIG. 3: Comparative efficacy and toxicity study in MCF-7 xenograft nude mouse model of BC. The efficacy of single i.p. injection of vehicle, PL (2 mg/kg) and AP (5 mg/kg) in 5 mice in each group was compared over a period of 21 days.
(§3) MCF-7 tumors grown up to 300 mm3 in four nude mice were harvested, dissected into 1-2 mm3 fragments and implanted into the study group for further testing. Nude mice (with tumor volume of 150 mm3) were treated with 25% Polyethylene glycol (PEG) 400 as vehicle, 2 mg/kg PL and 5 mg/kg AP for 21 days during which tumor volume, body weight and, at the time of sacrifice, tumor weight was measured.

MCF-7 CETP siRNA cells [4] = assay: MMP, caspase-3/7 activity and apoptosis in CETP knockdown MCF-7 cells; format: cell-based, human; details: for caspases-3/7 activity / increase of level of apoptosis: 10 μM PL or AP; for caspases-3/7 activity: CETP knockdown; for increase of level of apoptosis: MCF-7 CETP siRNA cells; for reduction in MMP: 10 μM, CETP knockdown compared to Ctrl siRNA cells
Method: FIG. 10: The effect of CETP mRNA silencing on MMP (A), Capase-3/7 activity (B) and apoptosis in MCF-7 (C) and BJ (D) untransfected, cntl siRNA and CETP knockout cells after treatment with 10 μM PL or AP. Values represent the means±SD of three independent experiments.
FIG. 12: The effect of CETP mRNA knockout on Capase-3/7 activity (A) and apoptosis (B) in MCF-7 cntl siRNA and CETP knockout cells after treatment with 25 μM tamoxifen for 24 h. Values represent the means±SD of three independent experiments.
Since, as shown above, CETP is required for optimal growth of MCF-7 cells, we further hypothesized that CETP may help cancer cell to resist/escape apoptotic signals thus preventing cell death. Several apoptotic markers such as MOMP, phosphatidylserine exposure and caspase-3/7 activity were tested to establish a link between CETP and apoptosis.
Next, we intended to see if CETP silencing increased sensitivity of MCF-7 cells to apoptosis.
To test if effect of CETP knockout on apoptosis in MCF-7 is limited to AP, we treated the CETP knockout MCF-7 cells with tamoxifen (a known first line drug for breast cancer treatment). […] This observation was not limited to PL and AP as similar observations were made in CETP knockdown cells treated with tamoxifen (FIG. 12).

[5] = Toxicity in MCF-7 xenograft nude mice (survival, body weight, ALT, AST); details: for survival of animals: 5 animals per group
Method: as §2, §3

[6] = system: lipid rafts of MCF-7 cells; assay: Lipid raft GM1 staining (CT-B Alexa 488); format: cell-based, human; details: 10 μM, over time (10 min to 2 h)
Method: FIG. 4: Lipid raft GM1 staining in MCF-7 cells with the Vybrant® Alexa Fluor® 488 Lipid Raft Labeling Kit. Cells were cultured in 96-well plates and stained with CT-B Alexa 488 in untreated cells, and after treatment with 10 μM PL or AP for 10 min, 30 min, 1 h and 2 h.
Cholesterol plays an integral role in the formation of lipid rafts, steroid hormone synthesis and cell membrane formation. […] Cancer cells have a greater affinity for cholesterol to pace with demands of proliferation and synthesis of new membranes and lipid rafts. Pathway predictions derived from microarray expression data pointed at the impairment of cholesterol related processes by AP. To confirm whether cholesterol related pathways were affected by PL or AP, we performed lipid raft staining in MCF-7 cells and cholesterol quantitation in both MCF-7 cells and plasma samples obtained from mice. […].

MCF-7 cells [7] = assay: MTT assay, viability of MCF-7 cells; details: for effect on cell viability: 1 and 2.5 μM, 24 h
Method: FIG. 1: MTT and APOPercentage assays to assess the differential cytotoxicity and apoptosis inducing potential of AP and PL in MCF-7 cells. Viability was determined using MTT assay after incubating the MCF-7 cells with different concentrations of AP and PL (A), at different time-points (B). The apoptosis inducing potential of 10 μM AP and PL in MCF-7 was determined by using APOPercentage assay performed at intervals of 2 and 6 h.
The activities of a compound described herein can be evaluated by methods known in the art, e.g., MTT (3-[4,5-dimethylthiazol-2-yl]-2,5-diphenyltetrazolium bromide) assay, APOPercentage, clonogenic assay, ATP assay, or Extreme Drug Resistance (EDR) assay. See Freuhauf, J. P. and Manetta, A., Chemosensitivity Testing in Gynecologic Malignancies and Breast Cancer 19, 39-52 (1994), which is incorporated by reference in its entirety. The results are then plotted to generate drug response curves, which allow IC50 values (the concentration of a compound required to inhibit 50% of the population of the treated cells) to be determined. […] In general, however, a dose can be in the range of from about 0.01 to about 10 mg/kg of body weight per day.
As a first step, MCF-7 cells were treated with 1, 2.5, 5 and 10 μM PL or AP for 24 h and percentage viability was determined after 24 h using the MTT assay. […] Next the effect of 10 μM PL drug on cell viability over time was determined. […] The percentage of cells undergoing apoptosis at the early time points i.e. 2 and 6 h was determined by the APOPercentage assay. APOPercentage dye binds to extracellularly exposed phosphatidylserine (PS) on the plasma membrane of apoptotic cells.

[8] = 2 h, after pre-incubation with 1 mM cholesterol for 1 h
[9] = 2 h, without addition of cholesterol
[10] = 2 mg/kg PL, 5 mg/kg AP, 21 days

Compound	level of apoptosis (MCF-7 cells [1]; 2 h) [%]	apoptosis (MCF-7 cells [1]; [8])	apoptosis (MCF-7 cells [1]; [9]) [%]	level of apoptosis (MCF-7 cells [1]; 6 h) [%]	total cholesterol in knock-out cells versus control siRNA cells (MCF-7 CETP siRNA cells [2])	reduction of total cholesterol (MCF-7 cells [3]) [%]	reduction of tumor volume (MCF-7 tumors; 2 mg/kg PL, 5 mg/kg AP)	caspases-3/7 activity (MCF-7 CETP siRNA cells [4])	increase of level of apoptosis (MCF-7 CETP siRNA cells [4]) [%]	reduction in MMP (MCF-7 CETP siRNA cells [4]) [%]	survival of animals [5, 10]	distribution of lipid rafts (GM1 in plasma membranes) [6]	effect on cell viability (MCF-7 cells [7])	also measured
CC(=O)Oc1cccc2c1C(=O)C=C(C)C2=O [AP, Acetyl Plumbagin]	~20	negligible	20	~45	did not show results any different	35	37%	significantly increased	10	17	survived	disrupted	no significant effect	inhibition of tumor growth (MCF-7 tumors; 5 mg/kg AP): 45%; reduction of ALT activity ([5]; 5 mg/kg AP): 36%; reduction of AST activity ([5]; 5 mg/kg AP): 7%; body weight ([5]; 5 mg/kg AP, 21 days): remained unaffected; cell viability reduced to (MCF-7 cells [7]; 10 μM, as early as 6 h): 50%
CC1=CC(=O)c2c(O)cccc2C1=O [PL, 5-hydroxy-2-methyl-1,4-naphthoquinone, reference compound]	~20	10%	30	~45	did not show results any different	35	approximately 17%	significantly increased	10	13	one mouse died	disrupted	no significant effect	tumor weight in comparison to vehicle (MCF-7 tumors; 2 mg/kg PL): no difference; ALT activity ([5]; 2 mg/kg PL): increased; AST activity ([5]; 2 mg/kg PL): increased; mice succumbed to treatment due to toxicity ([5]; 5 mg/kg PL, within four to six days): 8 mice; viability at 10 µM (MCF-7 cells [7]; Homo sapiens, MCF7, 6 h, read-out: cell viability reduced to): 50%
